Data as given in patent US20130053357A1, “SKIN IRRITATION SUPPRESSANT AND TRANSDERMAL PREPARATION” (HISAMITSU PHARMACEUTICAL CO., INC., priority 2010, published 2013).
Structures can show the parent of a compound that is named as a salt. Where two headings read alike, the source gives them in different places.

Key:
[1] = system: human three-dimensional culture epidermal model (LabCyte EPI-MODEL); assay: Suppression by cholesterol of skin irritation mediator production induced by drugs in a human epidermal cell (Experiment 2); format: cell-based
Description: (§1) A human three-dimensional epidermal culture model obtained by multilayer-culturing a human normal epidermal cell (LabCyte EPI-MODEL, manufactured by Japan Tissue Engineering Co., Ltd.) was used. LabCyte is a cultured skin cultured in a transwell. For the experiment, LabCyte was used with the transwell.
(§2) The experiment was conducted as below. First, LabCyte was put into a 24-well assay plate. Then, 1 ml of assay medium (Japan Tissue Engineering Co., Ltd.) was added so that it was brought into contact with a bottom surface of the cultured skin in each well of the 24-well assay plate, and was pre-cultured in an incubator with 5% of carbon dioxide concentration at 37° C. for 1 hour.
(§3) The test solutions of each group were added to the cells, the culture solutions incubated for 48 hours were collected, and a production amount of each skin irritation mediator was measured. The skin irritation mediator was measured by using a commercially available ELISA kit (manufactured by R&D Systems, Inc.). A relative production amount of the skin irritation mediator in each test substance was calculated as below, when the production amount of the skin irritation mediator in the PMA Only Group was set to 100.
Cholesterol was used as a test substance. The drugs shown in Table 2 were used as the cutaneous irritants.
Tests were conducted by the following group composition. • Drug Only Group: A group with addition of only the drug dispersed in a vehicle, as a test solution. Concentrations of the drugs are shown in Table 2. • Drug Plus Cholesterol Group: A group with addition of the drug and 1% by mass of cholesterol which were dispersed in a vehicle, as a test solution.
The experiment was conducted while other conditions were set in the same manner as in Experiment 1.

[2] = system: human three-dimensional culture epidermal model (LabCyte EPI-MODEL); assay: Production of skin irritation mediators induced by PMA in human three-dimensional epidermal culture model (Experiment 1); format: cell-based; conditions: for Relative Production Amount of Skin Irritation Mediator when Production Amount in PMA Only Group is Set to 100: IL-1α / Relative Production Amount of Skin Irritation Mediator when Production Amount in PMA Only Group is Set to 100: IL-6 / Relative Production Amount of Skin Irritation Mediator when Production Amount in PMA Only Group is Set to 100: IL-8 / Relative Production Amount of Skin Irritation Mediator when Production Amount in PMA Only Group is Set to 100: PGE2: 48 hours; for activity at 1 %: Homo sapiens, 48 h
Description: Changes in production amounts of skin irritation mediators by test substances were examined when cutaneous irritants were caused to act on a human three-dimensional culture epidermal model.
as §1
As test substances, there were used cholesterol (manufactured by Wako Pure Chemical Industries, Ltd.), β-sitosterol (manufactured by TAMA BIOCHEMICAL CO., LTD.), α-spinasterol (manufactured by ChromaDex, Inc.), ergosterol (manufactured by Wako Pure Chemical Industries, Ltd.), campesterol (manufactured by TAMA BIOCHEMICAL CO., LTD.), glycyrrhizin (manufactured by Wako Pure Chemical Industries, Ltd.), glycyrrhetinic acid (manufactured by Wako Pure Chemical Industries, Ltd.), ginsenoside (manufactured by Wako Pure Chemical Industries, Ltd.), squalene (manufactured by Wako Pure Chemical Industries, Ltd.), squalane (manufactured by Tokyo Chemical Industry Co., Ltd.) and lanosterol (manufactured by ChromaDex, Inc.), which are candidates of a skin irritation suppressant.
As skin irritants, Phorbol 12-Myristate 13-Acetate (PMA, manufactured by Wako Pure Chemical Industries, Ltd.) was used. In addition, as vehicle, olive oil (manufactured by Wako Pure Chemical Industries, Ltd.) was used.
Experiments were conducted by the following group composition. • PMA Only Group: A group with addition of only 0.00001 mol of PMA dispersed in a vehicle, as a test solution. • Test Substance Group: A group with addition of 0.00001 mol of PMA and the test substance which were dispersed in a vehicle, as a test solution.
as §2
Next, a cell survival rate was measured by the MTT method after causing the test solutions of each group to act. Specifically, 50 μL of the test solution of each group was added to the surface of the LabCyte after preculture, was cultured in the incubator with 5% of carbon dioxide concentration at 37° C. for 48 hours, then was transferred to the assay medium comprising 0.5 mg/ml of MTT reagent, and was cultured in the incubator with 5% of carbon oxide level at 37° C. for 3 hours. Then, LabCyte was immersed in 0.3 ml of an isopropanol solution, and the produced blue-purple formazan was extracted for 2 hours. After extraction, an absorbance at 570 nm was measured by a 96 microplate reader. The cell survival rate was calculated as below.
Cell survival rate (%)=(absorbance of Test Substance Group)/(absorbance of PMA Only Group)×100
Subsequently, a production amount of the skin irritation mediator at a test substance concentration with 80% or more of cell survival rate was measured. As skin irritation mediators, PGE2, IL-1α, IL-6, IL-8 were measured.
as §3
Relative production amount=(production amount of the mediator in Test Substance Group)/(production amount of the mediator in PMA Only Group)×100

[3] = Drug Plus Cholesterol Group: drug 2 × 10^−3 M plus 1% by mass of cholesterol
[4] = Drug Plus Cholesterol Group: drug 1 × 10^−3 M plus 1% by mass of cholesterol
[5] = Drug Plus Cholesterol Group: drug 8 × 10^−5 M plus 1% by mass of cholesterol
[6] = test substance 0.1 mass % with PMA in olive oil
[7] = test substance 1 mass % with PMA in olive oil

`CN1CCCC1c1cccnc1` (stereo not shown) [Nicotine] was tested, and the “Relative Production Amount of Skin Irritation Mediator when Production Amount in Drug Only Group is Set to 100: IL-1α” value [1, 3] was 29, the “Relative Production Amount of Skin Irritation Mediator when Production Amount in Drug Only Group is Set to 100: IL-6” value [1, 3] was 93 and the “Relative Production Amount of Skin Irritation Mediator when Production Amount in Drug Only Group is Set to 100: IL-8” value [1, 3] was 67. For the same molecule, the “Relative Production Amount of Skin Irritation Mediator when Production Amount in Drug Only Group is Set to 100: PGE2” value [1, 3] was 58.

For `CC(C)NCC(O)COc1ccc(COCCOC(C)C)cc1` (stereo not shown) [Bisoprolol Fumarate], the “Relative Production Amount of Skin Irritation Mediator when Production Amount in Drug Only Group is Set to 100: IL-1α” value [1, 4] was 26, the “Relative Production Amount of Skin Irritation Mediator when Production Amount in Drug Only Group is Set to 100: IL-6” value [1, 4] was 72 and the “Relative Production Amount of Skin Irritation Mediator when Production Amount in Drug Only Group is Set to 100: IL-8” value [1, 4] was 73. The “Relative Production Amount of Skin Irritation Mediator when Production Amount in Drug Only Group is Set to 100: PGE2” value [1, 4] was 87.

With `Cc1ccc(O)c([C@H](CCN(C(C)C)C(C)C)c2ccccc2)c1` [Tolterodine Tartrate] the “Relative Production Amount of Skin Irritation Mediator when Production Amount in Drug Only Group is Set to 100: IL-1α” value [1, 5] was 48, the “Relative Production Amount of Skin Irritation Mediator when Production Amount in Drug Only Group is Set to 100: IL-6” value [1, 5] was 92 and the “Relative Production Amount of Skin Irritation Mediator when Production Amount in Drug Only Group is Set to 100: IL-8” value [1, 5] was 66. For the same molecule, the “Relative Production Amount of Skin Irritation Mediator when Production Amount in Drug Only Group is Set to 100: PGE2” value [1, 5] was 58.

With `CC[C@H](/C=C/[C@@H](C)[C@H]1CC[C@H]2C3=CC[C@H]4C[C@@H](O)CC[C@]4(C)[C@H]3CC[C@]12C)C(C)C` [α-spinasterol] the “Effect on skin irritation mediator production by PMA (in words)” value (from here on “Effect”) ([2]; summary of Table 1) was “exhibited effects of suppressing the skin irritation mediator production by PMA”, the “Relative Production Amount of Skin Irritation Mediator when Production Amount in PMA Only Group is Set to 100: IL-1α” value [2, 6] was 38 and the “Relative Production Amount of Skin Irritation Mediator when Production Amount in PMA Only Group is Set to 100: IL-6” value [2, 6] was 109. The “Relative Production Amount of Skin Irritation Mediator when Production Amount in PMA Only Group is Set to 100: IL-8” value [2, 6] was 72 and the “Relative Production Amount of Skin Irritation Mediator when Production Amount in PMA Only Group is Set to 100: PGE2” value [2, 6] was 43.

In the case of `Cc1nc2n(c(=O)c1CCN1CCC(c3noc4cc(F)ccc34)CC1)CCCC2` [Risperidone], the “Relative Production Amount of Skin Irritation Mediator when Production Amount in Drug Only Group is Set to 100: IL-1α” value [1, 4] is reported as 14, the “Relative Production Amount of Skin Irritation Mediator when Production Amount in Drug Only Group is Set to 100: IL-6” value [1, 4] is reported as 77 and the “Relative Production Amount of Skin Irritation Mediator when Production Amount in Drug Only Group is Set to 100: IL-8” value [1, 4] is reported as 38. For the same molecule, the “Relative Production Amount of Skin Irritation Mediator when Production Amount in Drug Only Group is Set to 100: PGE2” value [1, 4] was 80.

In the case of `CC(C)[C@H](C)CC[C@@H](C)[C@H]1CC[C@H]2[C@@H]3CC=C4C[C@@H](O)CC[C@]4(C)[C@H]3CC[C@]12C` [Campesterol, campesterol], the “Effect” value [2] is reported as “exhibited effects of suppressing the skin irritation mediator production by PMA”, the activity at 1 % ([2]; read-out: Relative Production Amount of Skin Irritation Mediator when Production Amount in PMA Only Group is Set to 100: IL-1α) is reported as 53% and the activity at 1 % ([2]; read-out: Relative Production Amount of Skin Irritation Mediator when Production Amount in PMA Only Group is Set to 100: IL-6) is reported as 100%. The activity at 1 % ([2]; read-out: Relative Production Amount of Skin Irritation Mediator when Production Amount in PMA Only Group is Set to 100: IL-8) was 106% and the activity at 1 % ([2]; read-out: Relative Production Amount of Skin Irritation Mediator when Production Amount in PMA Only Group is Set to 100: PGE2) was 38%.

With `CN(C)CCC[C@@]1(c2ccc(F)cc2)OCc2cc(C#N)ccc21.O=C(O)C(=O)O` [(S)-citalopram Oxalate] the “Relative Production Amount of Skin Irritation Mediator when Production Amount in Drug Only Group is Set to 100: IL-1α” value [1, 4] was 61, the “Relative Production Amount of Skin Irritation Mediator when Production Amount in Drug Only Group is Set to 100: IL-6” value [1, 4] was 85 and the “Relative Production Amount of Skin Irritation Mediator when Production Amount in Drug Only Group is Set to 100: IL-8” value [1, 4] was 64. For the same molecule, the “Relative Production Amount of Skin Irritation Mediator when Production Amount in Drug Only Group is Set to 100: PGE2” value [1, 4] was 46.

In the case of ginsenoside, the “Effect” value ([2]; summary of Table 1) is reported as “exhibited effects of suppressing the skin irritation mediator production by PMA”, the “Relative Production Amount of Skin Irritation Mediator when Production Amount in PMA Only Group is Set to 100: IL-1α” value [2, 6] is reported as 77 and the “Relative Production Amount of Skin Irritation Mediator when Production Amount in PMA Only Group is Set to 100: IL-6” value [2, 6] is reported as 70. For the same molecule, the “Relative Production Amount of Skin Irritation Mediator when Production Amount in PMA Only Group is Set to 100: IL-8” value [2, 6] was 90 and the “Relative Production Amount of Skin Irritation Mediator when Production Amount in PMA Only Group is Set to 100: PGE2” value [2, 6] was 121.

`CC[C@H](CC[C@@H](C)[C@H]1CC[C@H]2[C@@H]3CC=C4C[C@@H](O)CC[C@]4(C)[C@H]3CC[C@]12C)C(C)C` [β-sitosterol] was tested, and the “Effect” value ([2]; summary of Table 1) was “exhibited effects of suppressing the skin irritation mediator production by PMA”, the “Relative Production Amount of Skin Irritation Mediator when Production Amount in PMA Only Group is Set to 100: IL-1α” value [2, 7] was 101 and the “Relative Production Amount of Skin Irritation Mediator when Production Amount in PMA Only Group is Set to 100: IL-6” value [2, 7] was 100. The “Relative Production Amount of Skin Irritation Mediator when Production Amount in PMA Only Group is Set to 100: IL-8” value [2, 7] was 34 and the “Relative Production Amount of Skin Irritation Mediator when Production Amount in PMA Only Group is Set to 100: PGE2” value [2, 7] was 44.
